Results taken from US6787552B2, “PPAR delta activators” (Nippon Chemiphar Co., Ltd., priority 2000, dated 2004).

Key:
PPARα = molecular target: T1, PPARα (Homo sapiens, UniProt Q07869); experiment: PPARα transactivation activity (GAL4-hPPARα LBD / UASx4-TK-LUC reporter in CV-1 cells); type: cell-based; conditions: CV-1; in the manner as described in Example 9; Table 26; read-out: PPARα (PPAR activating power)
T1 construct: Receptor expression plasmid (GAL4-hPPARα, LBD GAL4-hPPARγ LBD, GAL4-hPPARδ LBD); expressed in transfected cells; host or cells: CV-1 cells
T1 sequence (Q07869 239-466 limits assumed): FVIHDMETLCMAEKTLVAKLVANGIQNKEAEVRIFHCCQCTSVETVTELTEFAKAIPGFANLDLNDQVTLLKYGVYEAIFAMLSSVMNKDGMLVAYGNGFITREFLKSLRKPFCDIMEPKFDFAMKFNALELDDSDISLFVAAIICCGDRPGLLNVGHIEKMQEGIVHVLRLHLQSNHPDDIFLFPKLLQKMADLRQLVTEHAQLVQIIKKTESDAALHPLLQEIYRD
Protocol: (§1) (1) Measurement of PPARα,γ,δ Transactivation Activity
(§2) PPARα,γ,δ transactivation activity of each compound [Examples 1-6 and known PPARδ agonist (L-16504: Berger, J., et al. (1999), J. Biol. Chem., 274:6718-6725)] was measured in the manner described below.
(§3) CV-1 was obtained from Tohoku University Aging Medical Laboratory, Medical Cell Collection Center. All test compounds were dissolved in dimethylsulfoxide (DMSO) to give a test sample of 0.1% concentration.
(§4) Receptor expression plasmid (GAL4-hPPARα, LBD GAL4-hPPARγ LBD, GAL4-hPPARδ LBD), Reporter plasmid (UASx4-TK-LUC), and β-galactosidase expression plasmid (βGAL) similar to Kliewer, S. A., et al., ((1992) Nature, 358:771-774) were employed.
(§5) CV-1 cells were seeded in 24 well culture plates at 2×10^5 cells per well, and cultured for 24 hours using 4%-fetal bovine serum(FBS)-added OPTI-MEM I Reduced Serum Medium (Life Technologies, 500 μL/well). Subsequently, the cells were washed with non serum-added OPTI-MEM. To the washed cells were added DNA-containing solution [the following components were contained in the one well solution (250 μl): 0.03 μg of GAL4-hPPARδ LBD, 0.25 μg of UASx4-TK-LUC, 0.35 μg of βGAL, and 2 μL of lipofection reagent, DMRIE-C (Life Technologies). These components were dissolved in OPTI-MEM and allowed to stand for 30 minutes at room temperature]. The cells were incubated for 5 hours at 37° C.
(§6) The cells were then incubated for 40 hours in 500 μL of fresh OPTI-MEM containing 4% FBS and the test compound (dissolved in 100% DMSO to reach a final concentration: 10^−4M or 10^−5M).
(§7) The culture medium was removed and the cells were washed with PBS twice. Cell lysates were produced using a solubilizing buffer (25 mM Tris-PO4 (pH 7.8), 15%v/v glycerol, 2% CHAPS, 1% Lecithin, 1% BSA, 4 mM EGTA (pH 8.0), 8 mM MgCl2, 1 mM DTT). A portion (20 μL) of the solution was transferred onto a 96-well plate. Subsequently, 100 μL of luciferase substrate solution (Piccagene: available from Nippon Gene Co., Ltd.) was added, and a luminous intensity per one sec. (luciferase activity) was measured by means of MLR-100 type Microluminoreader (available from Corona Electrics Co., Ltd.). Further, the activity caused by […] incorporation which was incorporated into the cells simultaneously with the incorporation of the luciferase gene was measured, for correcting variation of luciferase activity by the addition of the compound, utilizing the transfection efficiency of the incorporated gene. β-Galactosidase activity was measured by the following method: 50 μL of the solubilized sample was placed on another 96-well plate; 10 μL of ONPG (2-nitrophenyl-β-galactopyranoside) solution was added; incubation was carried out for 5 minutes at room temperature; 50 μL of a reaction stopping solution (1M sodium carbonate solution) was added; and the absorbance at 414 nm was measured.

PPARδ = molecular target: T2, PPARδ (Homo sapiens, UniProt Q03181); experiment: PPARδ transactivation activity (GAL4-hPPARδ LBD / UASx4-TK-LUC reporter in CV-1 cells); type: cell-based; conditions: for Emax: CV-1, 40 h, in the manner as described in Example 9, Table 26, read-out: PPARδ (PPAR activating power)
T2 construct: A chimeric receptor expression plasmid (GAL4-hPPARδ LBD); expressed in transfected cells; host or cells: CV-1 cells
T2 sequence (Q03181 211-439 limits assumed): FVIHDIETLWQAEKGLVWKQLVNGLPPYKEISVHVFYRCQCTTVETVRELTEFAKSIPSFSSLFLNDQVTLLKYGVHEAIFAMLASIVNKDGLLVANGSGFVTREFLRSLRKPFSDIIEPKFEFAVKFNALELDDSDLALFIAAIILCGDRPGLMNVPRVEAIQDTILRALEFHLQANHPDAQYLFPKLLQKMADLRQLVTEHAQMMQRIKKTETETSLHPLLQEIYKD
Protocol: A chimeric receptor expression plasmid (GAL4-hPPARδ LBD), a reporter plasmid (UASx4-TK-LUC) and β-galactosidase (β-GAL) are transfected into CV-1 cells by utilizing a lipofection reagent DMRIE-C (Life Technologies).
as §1
CV-1 was obtained from Tohoku University Aging Medical Laboratory, Medical Cell Collection Center.
as §5, §6, §7

PPARγ = molecular target: T3, PPARγ (Homo sapiens, UniProt P37231); experiment: PPARγ transactivation activity (GAL4-hPPARγ LBD / UASx4-TK-LUC reporter in CV-1 cells); type: cell-based; conditions: CV-1; in the manner as described in Example 9; Table 26; read-out: PPARγ (PPAR activating power)
T3 construct: Receptor expression plasmid (GAL4-hPPARα, LBD GAL4-hPPARγ LBD, GAL4-hPPARδ LBD); expressed in transfected cells; host or cells: CV-1 cells
T3 sequence (P37231 238-503 limits assumed): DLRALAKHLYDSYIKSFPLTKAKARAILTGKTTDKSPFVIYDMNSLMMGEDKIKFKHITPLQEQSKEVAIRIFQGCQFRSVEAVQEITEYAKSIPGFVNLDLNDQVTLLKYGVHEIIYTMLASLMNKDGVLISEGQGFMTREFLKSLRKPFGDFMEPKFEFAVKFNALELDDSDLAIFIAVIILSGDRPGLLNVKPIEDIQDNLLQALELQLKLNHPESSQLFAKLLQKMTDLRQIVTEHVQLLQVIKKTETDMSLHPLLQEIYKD
Protocol: In the same manner, relative ligand activities to PPARδ and γ transactivation activitis are calculated (see the below-mentioned Example 9).
as §1, §2, §3, §4, §5, §6, §7

Row | melting point | Emax (PPARα) | Emax (PPARδ) | activity to PPARδ relative to activity to PPARα and γ (selectivity) (PPARδ; CV-1 cells, GAL4-hPPAR LBD reporter, relative activities vs control reagents) | Emax (PPARγ) | SMILES
1 | 100 to 105 °C | 1% | 86 ± 10% | higher | 2% | CC(C)c1oc(-c2ccc(Cl)cc2Cl)nc1CCC(=O)c1ccc(OC(C)(C)C(=O)O)cc1 [Example 7-4, 2-[4-[3-[2-(2,4-Dichlorophenyl)-5-isopropyl-4-oxazolyl]propionyl]phenyloxy]-2-methylpropionic acid]
2 | 135 to 139 °C | 1% | 65 ± 2% |  | 9% | CC(C)c1oc(-c2cc3ccccc3o2)nc1CCC(=O)c1ccc(OC(C)(C)C(=O)O)cc1 [Example 7-7, 2-[4-[3-[2-(2-Benzofuranyl)-5-isopropyl-4-oxazolyl]propionyl]phenyloxy]-2-methylpropionic acid]
3 |  | 2% | 53% |  | 18% | CC(C)c1oc(-c2ccc(-c3ccccc3)cc2Cl)nc1CCC(=O)c1ccc(OC(C)(C)C(=O)O)cc1 [Example 7-14, 2-[4-[3-[2-(3-Chloro-4-biphenylyl)-5-isopropyl-4-oxazolyl]propionyl]phenyloxy]-2-methylpropionic acid]
4 | 115 to 120 °C |  |  |  |  | CC(C)c1oc(-c2ccc(Cl)cc2Cl)nc1CCC(=O)c1cccc(OC(C)(C)C(=O)O)c1 [Example 8-2, 2-[3-[3-[2-(2,4-Dichlorophenyl)-5-isopropyl-4-oxazolyl]propionyl]phenyloxy)-2-methylpropionic acid]
